Measurements taken from patent US12673915B2, “Precursor compound of hexahydro-beta-acid component compound, feed composition and use thereof” (WISORIG TECHNOLOGIES PTE. LIMITED, priority 2020, dated 2026).

Tests used:
[1] = Thermal stability testing at 60° C. of ingredient and 1% premix (HPLC); type: physicochemical
Protocol: Preparation of a sample of 1% premix of an ingredient: 1 g of an ingredient was respectively weighed out and evenly mixed with 99 g of corncob meal in a mixer to give a sample of 1% premix of an ingredient for testing.
Thermal stability testing at 60° C.: The samples of an ingredient and 1% premix thereof were respectively spread in petri dishes to form thin layers of <5 mm, and kept at 60° C. Two replications for a sample were taken in parallel on day 5 and day 10 for HPLC analysis.
25.0 mg of an ingredient was accurately weighed out and dissolved in an appropriate amount of methanol by ultrasonication. The solution was then transferred to a volumetric flask and diluted to 25 mL with methanol to give a stock solution. The samples from the stock solution were diluted with methanol respectively to a concentration of 100 ppm, 500 ppm, and 1000 ppm of work solution, and then the working solutions were filtered by 0.22 μm organic membranes. Between the concentration of a sample and the response value of HPLC peak area thereof, the linearity was adjusted and detected to give a standard curve.
2.3: Preparation of Sample Solution 25.0 mg of an ingredient and 2.0000 g of a sample of 1% premix thereof were respectively accurately weighed out, and dissolved in 25 mL of methanol by ultrasonication for 10 minutes. The resulting solutions were filtered by organic membranes and then analyzed by HPLC. 2.4: Testing Conditions for HPLC • Column: Symmetry Cis column (Waters; 250 mm*4.6 mm, 5 μm). • Mobile phase: 0.02% phosphoric acid:methanol=5:95 (v:v). • Wavelength: 235 nm. • Temperature of the Column: 25° C. • Injection volume: 10 μL. • Flow rate: 1 mL/min. 3: Results

[2] = test system: yellow broilers; test: Effect on the production performance of broilers (30-day feeding trial); type: in vivo; conditions: for ADFI (average daily feed intake) / ADG (average daily weight gain) / FCR (feed conversion ratio): 30 days, broilers; for effects on the production performance of broilers compared with hexahydro-colupulone (in words): in vivo
Text: Single-factor was used to conduct the trial. 540 1-day-old yellow broilers with a similar average body weight of 50 g were randomly divided into 6 groups, with 6 replicates per group, equal amount of males and females and 15 yellow broilers per replicate. The chicken house and tools were sterilized before the trial. During the trial, the broilers were kept in separate regions in the same chicken house under the same feeding and management conditions. During the trial, each test group was fed with basal formula feed consisting of corn and soybean and not fed with other antioxidants or growth enhancers. The groups were known as control group (group 1) and test groups 2 to 6, wherein the control group was fed with basal formula feed only, while the test groups 2 to 6 were fed with basal formula feeds respectively mixed with hexahydro-colupulone, hexahydro-colupulone mono-acetate, or hexahydro-colupulone mono-butyrate, as shown in Table 5.
The trial lasted for 30 days. The broilers were given free hand with feed and water and were fed twice a day. To calculate the average daily feed intake (ADFI, g/d per broiler), the average daily weigh gain (ADG, g/d per broiler) and the feed conversion ratio (FCR), the 31 days old broilers (12 hours without feed but water) of each replication as one unit were weighed, and the amount of the feed consumed thereby was counted. Feed conversion ratio (FCR)=average daily feed intake/average daily weight gain

[3] = 1% Premix of an ingredient (corncob meal), Day 5
[4] = 1% Premix of an ingredient (corncob meal), Day 10

CC(=O)OC1=C(CCC(C)C)C(=O)C(CCC(C)C)(CCC(C)C)C(O)=C1C(=O)C(C)C [hexahydro-colupulone mono-acetate, Hexahydro-Colupulone Mono-Acetate]
Residual amount of active ingredient [1, 3]: 99.40% | Residual amount of active ingredient [1, 4]: 98.68% | Residual amount of active ingredient ([1]; Ingredient, Day 5): 99.69% | Residual amount of active ingredient ([1]; Ingredient, Day 10): 99.44% | ADFI (average daily feed intake) ([2]; 2 ppm in feed): 49.13 g/d per broiler | ADG (average daily weight gain) ([2]; 2 ppm in feed): 25.67 g/d per broiler | FCR (feed conversion ratio) ([2]; 2 ppm in feed): 2.02 | ADFI (average daily feed intake) ([2]; 20 ppm in feed): 50.06 g/d per broiler | ADG (average daily weight gain) ([2]; 20 ppm in feed): 27.36 g/d per broiler | FCR (feed conversion ratio) ([2]; 20 ppm in feed): 1.95 | effects on the production performance of broilers compared with hexahydro-colupulone (in words) [2]: equivalent

CCCC(=O)OC1=C(CCC(C)C)C(=O)C(CCC(C)C)(CCC(C)C)C(O)=C1C(=O)C(C)C [hexahydro-colupulone mono-butyrate]
Residual amount of active ingredient [1, 3]: 98.21% | Residual amount of active ingredient [1, 4]: 97.57% | Residual amount of active ingredient ([1]; Ingredient, Day 5): 99.76% | Residual amount of active ingredient ([1]; Ingredient, Day 10): 99.64% | ADFI (average daily feed intake) ([2]; 2 ppm in feed): 48.32 g/d per broiler | ADG (average daily weight gain) ([2]; 2 ppm in feed): 24.65 g/d per broiler | FCR (feed conversion ratio) ([2]; 2 ppm in feed): 1.96 | ADFI (average daily feed intake) ([2]; 20 ppm in feed): 49.95 g/d per broiler | ADG (average daily weight gain) ([2]; 20 ppm in feed): 25.88 g/d per broiler | FCR (feed conversion ratio) ([2]; 20 ppm in feed): 1.93 | effects on the production performance of broilers compared with hexahydro-colupulone (in words) [2]: equivalent

CC(C)CCC1=C(O)C(C(=O)C(C)C)=C(O)C(CCC(C)C)(CCC(C)C)C1=O [hexahydro-colupulone, reference compound]
Residual amount of active ingredient [1, 3]: 97.02% | Residual amount of active ingredient [1, 4]: 93.56% | Residual amount of active ingredient ([1]; Ingredient, Day 5): 99.76% | Residual amount of active ingredient ([1]; Ingredient, Day 10): 99.10% | change of active ingredient ([1]; active ingredient of 1% premix, 10-day testing period): more than 5% | ADFI (average daily feed intake) ([2]; 20 ppm in feed): 49.68 g/d per broiler | ADG (average daily weight gain) ([2]; 20 ppm in feed): 25.19 g/d per broiler | FCR (feed conversion ratio) ([2]; 20 ppm in feed): 1.97
